Here are results for 64 compounds from US9346769B2, “Tetrazolones as inhibitors of fatty acid synthase” (Infinity Pharmaceuticals, Inc., priority 2010, dated 2016).

The test concerns the target T1, human FASN (Homo sapiens, UniProt P49327).
T1 construct: was purified from SKBR3 cells using procedures modified from those in Jayakumar et al; endogenous in cells; host or cells: SKBR3 human breast cancer cells (ATCC); Endogenous enzyme purified by ammonium sulfate precipitation and a mono Q column
The experiment in a line: FASN NADPH Consumption Assay. Format: biochemical. Conditions: human FASN purified from SKBR3 cells; starred symbols. As to the method: Human FASN protein (SEQ ID NO. 1) was purified from SKBR3 cells using procedures modified from those in Jayakumar et al. PNAS 1995, 92:8695-8699. SKBR3 cells were obtained from ATCC and grown in DMEM high glucose medium supplemented with 10% FBS, 1 μg/mL bovine pancreas insulin, 100 U/mL penicillin and 100 µg/mL streptomycin. The confluent cells were trypsinized and washed three times with PBS buffer before frozen in liquid N2 and stored at −80° C. Frozen cells were thawed on ice and resuspended in lysis buffer (25 mM Tris-HCl, pH 7.0, 15 mM NaCl, 1 mM EDTA, and 1 mM DTT) with protease inhibitors. The cells were lysed by sonication, and the cell debris was removed by centrifugation at 20,000 rpm for 30 min. To the supernatant, neutralized saturated ammonium sulfate solution was added to a final concentration of 35%. The solution was left on ice for 1 hr, and the precipitated proteins were harvested by centrifugation at 20,000 rpm for 30 min. The proteins were redissolved in lysis buffer without NaCl and loaded on a mono Q column. Bound proteins were eluted with a linear gradient of NaCl in lysis buffer. Each fraction was analyzed by SDS-PAGE and FASN NADPH consumption assay. The fractions containing FASN were pooled and concentrated to 2-3 mg/mL. Glycerol was added to 20%, and the protein was frozen in liquid N2 and stored at −80° C.
All chemicals were purchased from Sigma (St. Louis, Mo.). The procedures of NADPH consumption assay were similar to those described in Cox et al., PNAS 1983, 80:4233-4237. On a 96-well polypropylene microplate, dilution series (typical concentrations 60 nM-1.0 mM) of test compounds were prepared in DMSO, of which 4.0 μL each was transferred to a black polystyrene assay microplate and mixed with 36 μL FASN assay buffer (50 mM potassium phosphate, pH 7.0, 1.0 mM EDTA, 0.01% NP-40) plus 5.0 mM fresh DTT. FASN protein (40 μL 150 nM FASN) was added per well, and the microplate was incubated at 37° C. for 30 min. Enzyme activity measurement was initiated by addition of 20 μL 5× substrate mixture to final concentrations of 60 nM FASN, 2.4 nM-40 μM compound, 0.2 mM NADPH, 50 μM butyryl-CoA, 0.5 mM malonyl-CoA in 100 μL assay buffer plus 5.0 mM DTT and 4.0% DMSO. NADPH consumption was monitored kinetically by fluorescence (λEx=340 nm, λEm=460 nm) on an EnVision 2100 multilabel plate reader (Perkin Elmer, Waltham, Mass.). FASN enzyme activity (slope) in the presence of 4% DMSO was used as maximum control, whereas background (minimum control) was measured by omission of malonyl-CoA in the substrate mixture. Inhibition curves were fitted by a logistic function to yield IC50 values:
Compounds were assayed as inhibitors of human FASN using the above-described FASN Scintillation Proximity Flashplate Assay (IC50; nM) or FASN NADPH Consumption Assay (*) (IC50; nM). The corresponding activity of the isolated compound is also provided along with the measured mass (ES^+).

Where only a bound is given, the exact number is not on record here.

T1 sequence (P49327 whole entry): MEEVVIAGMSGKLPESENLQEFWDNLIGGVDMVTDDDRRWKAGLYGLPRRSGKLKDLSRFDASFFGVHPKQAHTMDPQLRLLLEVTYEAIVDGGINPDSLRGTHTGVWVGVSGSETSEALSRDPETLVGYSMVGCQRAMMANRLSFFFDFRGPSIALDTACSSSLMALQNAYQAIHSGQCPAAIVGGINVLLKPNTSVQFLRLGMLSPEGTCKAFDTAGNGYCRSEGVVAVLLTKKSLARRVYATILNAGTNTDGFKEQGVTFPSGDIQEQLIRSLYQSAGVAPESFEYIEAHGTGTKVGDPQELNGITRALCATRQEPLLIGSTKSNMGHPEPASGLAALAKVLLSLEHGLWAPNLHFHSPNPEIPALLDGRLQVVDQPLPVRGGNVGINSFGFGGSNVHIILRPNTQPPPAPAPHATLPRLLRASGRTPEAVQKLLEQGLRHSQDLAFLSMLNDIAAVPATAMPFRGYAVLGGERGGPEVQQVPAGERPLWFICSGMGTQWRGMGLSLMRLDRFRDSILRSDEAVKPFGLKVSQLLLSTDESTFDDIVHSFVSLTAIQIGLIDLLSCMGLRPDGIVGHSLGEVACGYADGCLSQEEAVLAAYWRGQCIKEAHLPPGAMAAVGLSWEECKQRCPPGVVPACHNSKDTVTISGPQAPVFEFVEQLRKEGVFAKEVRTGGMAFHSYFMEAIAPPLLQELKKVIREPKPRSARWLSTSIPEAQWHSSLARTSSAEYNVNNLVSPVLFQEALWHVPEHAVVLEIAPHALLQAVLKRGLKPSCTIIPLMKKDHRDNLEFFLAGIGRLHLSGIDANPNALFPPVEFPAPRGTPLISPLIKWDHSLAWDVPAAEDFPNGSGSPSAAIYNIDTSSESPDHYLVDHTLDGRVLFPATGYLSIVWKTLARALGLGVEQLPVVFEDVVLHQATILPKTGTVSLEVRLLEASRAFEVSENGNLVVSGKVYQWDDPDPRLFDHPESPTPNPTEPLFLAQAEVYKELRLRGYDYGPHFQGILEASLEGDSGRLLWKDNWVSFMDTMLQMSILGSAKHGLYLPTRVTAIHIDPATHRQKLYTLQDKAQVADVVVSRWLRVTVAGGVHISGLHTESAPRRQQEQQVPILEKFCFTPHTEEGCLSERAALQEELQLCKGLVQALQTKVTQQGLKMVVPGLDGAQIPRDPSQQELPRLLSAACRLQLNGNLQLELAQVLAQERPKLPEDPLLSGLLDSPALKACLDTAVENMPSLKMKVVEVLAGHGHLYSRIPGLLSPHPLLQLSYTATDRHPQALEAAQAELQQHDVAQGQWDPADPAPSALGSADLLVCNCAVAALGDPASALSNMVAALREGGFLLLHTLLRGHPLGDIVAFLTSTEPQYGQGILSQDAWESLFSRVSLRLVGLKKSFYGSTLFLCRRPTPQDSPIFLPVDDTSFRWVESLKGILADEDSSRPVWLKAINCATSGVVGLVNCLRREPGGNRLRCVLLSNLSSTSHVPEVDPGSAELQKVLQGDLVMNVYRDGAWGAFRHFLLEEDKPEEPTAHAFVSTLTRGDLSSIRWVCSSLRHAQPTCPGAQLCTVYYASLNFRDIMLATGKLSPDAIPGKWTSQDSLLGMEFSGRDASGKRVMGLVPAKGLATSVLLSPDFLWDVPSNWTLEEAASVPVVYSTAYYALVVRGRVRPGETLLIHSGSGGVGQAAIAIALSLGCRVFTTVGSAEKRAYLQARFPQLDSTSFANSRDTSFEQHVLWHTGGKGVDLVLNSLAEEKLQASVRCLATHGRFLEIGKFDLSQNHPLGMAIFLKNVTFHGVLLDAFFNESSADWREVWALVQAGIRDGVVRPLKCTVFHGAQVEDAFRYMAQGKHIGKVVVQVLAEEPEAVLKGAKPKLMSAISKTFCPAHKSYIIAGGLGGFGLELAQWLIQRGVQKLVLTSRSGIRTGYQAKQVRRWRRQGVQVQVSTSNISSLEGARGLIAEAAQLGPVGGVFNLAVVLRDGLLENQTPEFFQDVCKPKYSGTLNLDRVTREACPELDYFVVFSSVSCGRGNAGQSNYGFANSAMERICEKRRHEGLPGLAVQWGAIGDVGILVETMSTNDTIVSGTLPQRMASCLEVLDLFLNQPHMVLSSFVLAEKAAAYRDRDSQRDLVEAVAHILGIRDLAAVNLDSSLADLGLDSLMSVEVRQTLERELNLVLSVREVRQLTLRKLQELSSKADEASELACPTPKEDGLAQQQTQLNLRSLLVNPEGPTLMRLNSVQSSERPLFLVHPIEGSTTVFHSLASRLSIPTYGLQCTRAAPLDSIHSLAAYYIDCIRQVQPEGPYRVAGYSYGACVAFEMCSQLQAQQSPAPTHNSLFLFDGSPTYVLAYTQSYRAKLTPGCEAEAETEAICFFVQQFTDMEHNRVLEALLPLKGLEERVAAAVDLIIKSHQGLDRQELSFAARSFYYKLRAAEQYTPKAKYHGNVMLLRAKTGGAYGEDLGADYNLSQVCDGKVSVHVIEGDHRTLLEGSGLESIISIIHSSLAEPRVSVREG

`O=C(Nc1ccccc1)n1nnn(-c2ccccc2)c1=O`: the IC50 (in general, the concentration needed to halve the response being measured) is over 10000 nM.
To `CCN(C(=O)n1nnn(-c2ccccc2)c1=O)c1cc(C(=O)O)ccc1OC` belongs 60 to 250 nM.
Compound `O=C(O)c1ccc(N(CCc2ccccc2)C(=O)n2nnn(-c3ccccc3)c2=O)cc1` came in with a 50% inhibitory concentration (IC50) of 250 to 1000 nM.
Regarding `CCN(C(=O)n1nnn(-c2ccccc2OC)c1=O)c1ccc(C(=O)OCc2ccccc2)c(OC)c1`, the IC50 was 60 to 250 nM.
To `CCN(C(=O)n1nnn(-c2ccccc2OC)c1=O)c1ccc(C(=O)O)cc1OC` belongs 60 to 250 nM; to `CCN(C(=O)n1nnn(-c2ccccc2OC)c1=O)c1ccc(C(=O)O)c(OC)c1`, 60 to 250 nM.
`CCN(C(=O)n1nnn(-c2ccccc2OC)c1=O)c1cccc(C(=O)O)c1OC` came in with an IC50 of 250 to 1000 nM.
The compound `COc1ccccc1-n1nnn(C(=O)N(c2ccccc2)c2ccc(C(=O)O)cc2)c1=O` yielded an IC50 of under 60 nM.
`CCCOc1ccc(C(=O)O)cc1N(CC)C(=O)n1nnn(-c2ccccc2OC)c1=O` yielded an IC50 of 250 to 1000 nM.
For `CCCCCCN(C(=O)n1nnn(-c2ccccc2OC)c1=O)c1cc(C(=O)O)ccc1OC` the value was 250 to 1000 nM; for `CCN(C(=O)n1nnn(-c2ccccc2OC)c1=O)c1cc(C(=O)O)ccc1Cl`, under 60 nM.
Take `COc1ccc(C(=O)O)cc1N(CCCc1ccccc1)C(=O)n1nnn(-c2ccccc2OC)c1=O`: the IC50 was 250 to 1000 nM.
For `CCN(C(=O)n1nnn(-c2ccccc2OC)c1=O)c1cc(C(=O)O)ccc1OC(C)C` the value was 1000 to 10000 nM; for `CN(C(=O)n1nnn(-c2ccccc2Cl)c1=O)c1ccccc1`, 250 to 1000 nM.
Consider `CC(C)N(C(=O)n1nnn(-c2ccccc2Cl)c1=O)c1ccccc1`, for which the IC50 lay within 250 to 1000 nM.
`CN(C(=O)n1nnn(-c2ccccc2Cl)c1=O)c1ccc(Br)cc1` came in with an IC50 of 60 to 250 nM.
`C=CCN(C(=O)n1nnn(-c2ccccc2Cl)c1=O)c1ccccc1` came in with an IC50 of 60 to 250 nM.
The compound `CN(C(=O)n1nnn(-c2ccccc2Cl)c1=O)c1cccc(F)c1` showed an IC50 of 250 to 1000 nM.
`C/C=C(/C)c1ccc(N(C)C(=O)n2nnn(-c3ccccc3Cl)c2=O)cc1` came in with an IC50 of 250 to 1000 nM.
In turn, `CN(C(=O)n1nnn(-c2ccccc2Cl)c1=O)c1ccccc1F` displayed an IC50 of 60 to 250 nM.
For `CCN(C(=O)n1nnn(-c2ccccc2Cl)c1=O)c1ccccc1` the value was 60 to 250 nM.
As to `CN(C(=O)n1nnn(-c2ccccc2Br)c1=O)c1ccccc1`, the IC50 fell in the range of 250 to 1000 nM.
With `CN(C(=O)n1nnn(-c2ccccc2F)c1=O)c1ccccc1`, the IC50 is 250 to 1000 nM.
Turning to `CCN(C(=O)n1nnn(-c2c(F)cccc2F)c1=O)c1ccc([N+](=O)[O-])cc1F`, the IC50 was in the range of 60 to 250 nM.
In the case of `CCN(C(=O)n1nnn(-c2c(F)cccc2F)c1=O)c1ccc(Br)cc1`, the IC50 is under 60 nM.
The compound `O=C(N(CCO)c1ccccc1)n1nnn(-c2c(F)cccc2F)c1=O` returned an IC50 of 1000 to 10000 nM.
`CCN(C(=O)n1nnn(-c2c(Cl)cccc2Cl)c1=O)c1cccc(N)c1` registered an IC50 of 60 to 250 nM.
As to `CCN(C(=O)n1nnn(-c2c(Cl)cccc2Cl)c1=O)c1ccc([N+](=O)[O-])cc1`, the IC50 fell in the range of 60 to 250 nM.
`CCN(C(=O)n1nnn(-c2c(Cl)cccc2Cl)c1=O)c1cccc([N+](=O)[O-])c1` had an IC50 of 60 to 250 nM.
Compound `CS(=O)(=O)NCCCN(C(=O)n1nnn(-c2c(Cl)cccc2Cl)c1=O)c1ccc(C(=O)O)cc1` yielded an IC50 of 1000 to 10000 nM.
`CCN(C(=O)n1nnn(-c2c(Cl)cccc2Cl)c1=O)c1ccc(C(=O)OCc2ccccc2)c(OC)c1` had an IC50 of 60 to 250 nM.
Turning to `CCN(C(=O)n1nnn(-c2c(Cl)cccc2Cl)c1=O)c1cccc(CO[Si](C)(C)C(C)(C)C)c1`, the IC50 was 60 to 250 nM.
The compound `O=C(OCc1ccccc1)c1ccc(N(CCc2cccnc2)C(=O)n2nnn(-c3c(Cl)cccc3Cl)c2=O)cc1` gave an IC50 of 250 to 1000 nM.
In turn, `O=C(O)c1ccc(N(CCc2cccnc2)C(=O)n2nnn(-c3c(Cl)cccc3Cl)c2=O)cc1` yielded a 50% inhibitory concentration (IC50) of 1000 to 10000 nM.
With `CCN(C(=O)n1nnn(-c2c(Cl)cccc2Cl)c1=O)c1ccc(C(=O)O)cc1OC`, the IC50 was 60 to 250 nM.
Regarding `CCN(C(=O)n1nnn(-c2c(Cl)cccc2Cl)c1=O)c1ccc([N+](=O)[O-])cc1F`, the IC50 was 250 to 1000 nM.
In turn, `CCN(C(=O)n1nnn(-c2c(Cl)cccc2Cl)c1=O)c1cccc(C(=O)NS(=O)(=O)c2ccccc2)c1` registered an IC50 of under 60 nM.
In turn, `CCN(C(=O)n1nnn(-c2c(Cl)cccc2Cl)c1=O)c1cccc(CO)c1` returned an IC50 of 250 to 1000 nM.
To `CCN(C(=O)n1nnn(-c2c(Cl)cccc2Cl)c1=O)c1ccc(N)cc1` belongs 60 to 250 nM; to `CCN(C(=O)n1nnn(-c2c(Cl)cccc2Cl)c1=O)c1ccccc1`, 250 to 1000 nM; to `C=CCN(C(=O)n1nnn(-c2c(Cl)cccc2Cl)c1=O)c1ccccc1`, 1000 to 10000 nM.
Compound `CCN(C(=O)n1nnn(-c2c(Cl)cccc2Cl)c1=O)c1ccc(C(=O)OCc2ccc(OC)cc2)cc1Cl` showed an IC50 of 60 to 250 nM.
For `CN(C(=O)n1nnn(-c2c(Cl)cccc2Cl)c1=O)c1ccccc1` the value was 60 to 250 nM; for `O=C(OCc1ccccc1)c1ccc(N(CCc2ccccc2)C(=O)n2nnn(-c3c(Cl)cccc3Cl)c2=O)cc1`, over 10000 nM.
`CCN(C(=O)n1nnn(-c2c(Cl)cccc2Cl)c1=O)c1cccc(NS(=O)(=O)C(F)(F)F)c1` came in with an IC50 of 60 to 250 nM.
The compound `CCN(C(=O)n1nnn(-c2c(OC)cccc2OC)c1=O)c1ccc(C(=O)O)c(OC)c1` returned an IC50 of 250 to 1000 nM.
As for `CCN(C(=O)n1nnn(-c2c(OC)cccc2OC)c1=O)c1ccc(C(=O)OCc2ccccc2)c(OC)c1`, the concentration for half-maximal inhibition (IC50) lay in the range of 250 to 1000 nM.
As to `CCN(C(=O)n1nnn(-c2c(F)cccc2OC)c1=O)c1ccc(C(=O)OCc2ccccc2)c(OC)c1`, the IC50 is under 60 nM.
Compound `COc1cccc(F)c1-n1nnn(C(=O)N(c2cccc(C(=O)O)c2)C2CC2)c1=O` registered an IC50 of 60 to 250 nM.
As to `CCCCOc1ccccc1N(CC)C(=O)n1nnn(-c2c(F)cccc2OC)c1=O`, the IC50 was in the range of 250 to 1000 nM.
With `CCN(C(=O)n1nnn(-c2c(F)cccc2OC)c1=O)c1ccccc1C(C)(C)C`, the IC50 was 1000 to 10000 nM.
Consider `CCN(C(=O)n1nnn(-c2c(F)cccc2C(=O)O)c1=O)c1ccccc1Oc1ccccc1`, for which the half-inhibitory concentration (IC50) was in the range of 1000 to 10000 nM.
Consider `CCN(C(=O)n1nnn(-c2c(F)cccc2C(=O)OC)c1=O)c1ccccc1`, for which the IC50 fell in the range of 60 to 250 nM.
Regarding `CCN(C(=O)n1nnn(-c2c(F)cccc2C#Cc2ccccc2)c1=O)c1ccccc1`, the IC50 fell in the range of 60 to 250 nM.
With `CCN(C(=O)n1nnn(-c2c(F)cccc2C#Cc2ccccc2C)c1=O)c1ccccc1`, the IC50 was in the range of 60 to 250 nM.
In the case of `CCN(C(=O)n1nnn(-c2c(F)cccc2CCc2ccccc2)c1=O)c1ccccc1`, the IC50 is 60 to 250 nM.
In turn, `CCN(C(=O)n1nnn(-c2c(F)cccc2CCc2ccccc2C)c1=O)c1ccccc1` yielded an IC50 of 60 to 250 nM.
As to `CCN(C(=O)n1nnn(-c2c(F)cccc2Br)c1=O)c1ccccc1`, the IC50 was 60 to 250 nM.
To `CCN(C(=O)n1nnn(-c2c(F)cc(F)cc2Br)c1=O)c1ccccc1` belongs 60 to 250 nM; to `CN(C(=O)n1nnn(-c2ccccc2Cl)c1=O)c1ccccn1`, 1000 to 10000 nM.
`CN(C(=O)n1nnn(-c2c(F)cccc2F)c1=O)c1ccccn1` gave an IC50 of 250 to 1000 nM.
For `CN(Cc1ccccc1)C(=O)n1nnn(-c2ccccc2Cl)c1=O` the value was 1000 to 10000 nM; for `COc1ccc(CNC(=O)n2nnn(-c3c(Cl)cccc3Cl)c2=O)c(OC)c1`, over 10000 nM.
`CN(CCc1ccccc1)C(=O)n1nnn(-c2ccccc2Cl)c1=O` displayed an IC50 of over 10000 nM.
